Results taken from patent US20040009170A1, “Alpha-melanocyte stimulating hormone peptides protection in organ transplantation” (priority 2002, published 2004).

Columns and labels:
[1] = tested on: donor cardiac grafts (Brown Norway) transplanted into recipient (Lewis) rats; assay: Heterotopic heart transplantation in rats: allograft survival; type: in vivo, rat
Description: Adult inbred Brown Norway (donor) and Lewis (recipient) male rats, weighing 200-300 g were used in this study (Charles River, Calco, Italy). Animals were maintained at the animal care facilities of the Department of Hepatology, Ospedale Maggiore di Milano, Italy, under standard temperature, humidity, and time-regulated light conditions. Water and food were provided ad libitum. All animals received care in compliance with the Principles of Laboratory Animal Care, formulated by the National Society of Medical Research, and the Guide for the Care and Use of Laboratory Animals, prepared by the National Academy of Sciences and published by the National Institutes of Health (NIH Publication No. 8623, revised 1985).
Before transplantation, animals were anesthetized with an intraperitoneal injection of 125-mg/kg ketamine. During anesthesia, heart rate, ventilation rate, and temperature were closely monitored. Donor cardiac grafts (Brown Norway) were transplanted into the abdominal cavity of the recipient (Lewis) rats using the technique described by Ono and Lindsey. […] Graft function was monitored by palpation through the abdominal wall twice daily. […]
Statistical analysis was performed using SigmaStat statistical software (Jandel Scientific GmbH, Germany). Values are expressed as mean±SEM. […] Difference in median graft survival time was evaluated using the Mann-Whitney Rank Sum Test. […]

[2] = tested on: heart grafts (Brown Norway into Lewis rats); assay: Histopathological evaluation and ED1 immunohistochemistry of heart grafts; type: in vivo, rat
Experimental: Experiments were performed to determine whether NDP-α-MSH treatment prolongs allograft survival. For this purpose, NDP-α-MSH or saline was administered from the time of transplantation until spontaneous rejection. In such experiments (n=7), rats were sacrificed when there was loss of palpable contractile activity of the graft. Studies were performed focusing on the influence of NDP-α-MSH on graft histopathology and transcripts involved in inflammation and rejection. For these studies, rats (n=6) were sacrificed 1 or 4 days after transplantation. NDP-α-MSH or saline was administered from day 0 until the sacrifice.
Heart grafts, removed from rats on day 1, 4, or at the time of rejection, were sectioned coronally. Two sections were snap-frozen in liquid nitrogen and stored at −80° C. for RNA extraction and RT-PCR assays. One section was fixed in 10% buffered formalin and paraffin-embedded for light microscopy examination.
Histopathological evaluation was then performed. Three μm coronal sections of heart grafts were stained with hematoxylin and eosin. Histopathological lesions were scored by two blinded observers using a 5-point scale according to combined assessments of edema (absent, perivascular/mild interstitial, subendocardial, diffuse interstitial, massive); inflammatory cell infiltration (absent, perivascular, subendocardial, diffuse interstitial, massive), and myocytolysis (absent, focal, massive): 0=minimum damage, 1+=mild damage, 2+=moderate damage, 3+=severe damage, and 4+=maximum damage.
Analysis of graft infiltrating monocytes/macrophages was performed through immunohistochemical detection of ED1-positive cells. Sections were stained using the peroxidase-antiperoxidase (PAP) technique, after incubation with mouse anti-rat ED 1 or control antibody (Santa Cruz Biotech, Santa Cruz, Calif., USA). Slides were counterstained with hematoxylin and eosin.
Statistical analysis was performed using SigmaStat statistical software (Jandel Scientific GmbH, Germany). Values are expressed as mean±SEM. Unpaired Student's t test was used to compare differences between values in histological scores. Difference in median graft survival time was evaluated using the Mann-Whitney Rank Sum Test. A probability value<0.05 was considered statistically significant.

[3] = Plasma nitrite (NO2-) determination after heart transplantation (Griess); type: in vivo, rat; settings: all intervals (day 1, day 4, rejection)
Experimental: Plasma was separated by centrifugation, aliquoted, and stored at −80° C.
Nitric oxide determinations were performed. Specifically, plasma nitrite concentration was determined at times of sacrifice as a measure of nitric oxide release. Nitrates (NO3^−) were converted into nitrites (NO2^−) by treatment of serum with nitrate reductase (Boehringer Mannheim Italia SpA, Milan, Italy). After enzymatic reduction, samples were mixed with equal amounts of Griess reagent (sulfanilamide 1%, napthlethylenediamide 0.1% in phosphoric acid 0.25%). Samples were incubated at room temperature for 10 min and absorbency was measured at 540 nm using a microplate automatic reader.

[4] = depending upon the assay employed; cited from earlier work
proteolytic enzymes = settings: cited from earlier work
[5] = 4 days after transplantation, vs untreated
[6] = day 1 after transplantation, vs untreated

## Nle^4DPhe^7-α-MSH [NDP-α-MSH]
[1]; 100 μg i.p. every 12 h from 1 h before transplantation until rejection, no immunosuppression, untreated 6 days, p<0.001
  Median graft survival: 10 days
[1]; 100 μg i.p. every 12 h until rejection, untreated range 6-8
  Graft survival time, range: 9 to 11 days
[2]; [5]
  ED1-positive cells infiltrating the graft: fewer and dispersed
  Inflammation and edema: milder and mostly restricted to the subendocardial region
[2]; 4 days after transplantation, untreated 10.8±0.80, p<0.01
  Histopathological score of heart grafts: 7.0±0.64
[2]; at time of rejection
  Histology of rejected hearts, treated vs untreated: no significant differences
[2]; [6]
  Inflammatory cell infiltration: much less
  Intragraft edema: milder and generally restricted to the perivascular spaces
[2]; day 1 after transplantation, mean±SEM, untreated 8.7±0.25, p<0.001
  Histopathological score of heart grafts: 3.0±0.90
[3]
  Increases in plasma NO2- concentration vs untreated: significantly lower
[4]
  Activity relative to the natural molecule: 10- to 1000 times
Proteolytic enzymes
  Inactivation by proteolytic enzymes: resistant
